In one experiment the target is T1, TLR8 (Homo sapiens, UniProt Q9NR97).
T1 sequence (Q9NR97 27-1041): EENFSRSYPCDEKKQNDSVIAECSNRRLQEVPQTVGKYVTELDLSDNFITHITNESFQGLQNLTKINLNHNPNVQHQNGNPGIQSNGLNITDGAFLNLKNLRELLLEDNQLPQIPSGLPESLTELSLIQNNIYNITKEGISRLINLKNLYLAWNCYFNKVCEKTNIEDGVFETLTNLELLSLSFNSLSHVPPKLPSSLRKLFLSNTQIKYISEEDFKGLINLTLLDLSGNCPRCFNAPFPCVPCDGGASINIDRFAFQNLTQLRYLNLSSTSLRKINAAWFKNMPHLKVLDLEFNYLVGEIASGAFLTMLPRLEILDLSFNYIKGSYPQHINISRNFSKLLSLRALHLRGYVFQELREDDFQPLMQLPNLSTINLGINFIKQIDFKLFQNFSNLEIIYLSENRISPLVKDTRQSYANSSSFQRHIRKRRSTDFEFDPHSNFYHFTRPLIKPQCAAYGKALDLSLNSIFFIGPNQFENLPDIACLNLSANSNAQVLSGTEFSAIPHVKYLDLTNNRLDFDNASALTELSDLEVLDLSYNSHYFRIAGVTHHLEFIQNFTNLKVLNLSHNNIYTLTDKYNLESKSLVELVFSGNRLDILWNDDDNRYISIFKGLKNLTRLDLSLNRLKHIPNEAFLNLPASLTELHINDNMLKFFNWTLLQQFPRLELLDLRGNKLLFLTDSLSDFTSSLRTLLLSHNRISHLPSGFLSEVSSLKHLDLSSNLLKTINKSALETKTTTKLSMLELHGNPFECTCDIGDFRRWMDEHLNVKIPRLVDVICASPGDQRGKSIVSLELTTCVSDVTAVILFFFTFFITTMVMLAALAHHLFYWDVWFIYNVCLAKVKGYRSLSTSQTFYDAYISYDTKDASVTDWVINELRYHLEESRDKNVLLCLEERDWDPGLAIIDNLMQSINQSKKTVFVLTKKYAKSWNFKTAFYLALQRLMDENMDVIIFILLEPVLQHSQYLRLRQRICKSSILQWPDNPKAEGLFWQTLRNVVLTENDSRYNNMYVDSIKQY
In words: PBMC assay for TLR8 (TNFα in supernatants by ELISA). The class given is cell-based. Also noted: Peripheral blood mononuclear cells (PBMCs) from human blood were isolated; endogenous in cells; host or cells: human PBMCs. To be noted: human PBMCs incubated with compound overnight, MC50 = concentration at which 50% of the maximum induction is seen. As for the experimental part: (§1) Peripheral blood mononuclear cells (PBMCs) from human blood were isolated using BD Vacutainer Cell Preparation Tubes with sodium citrate. Cells were incubated with compound overnight. TLR8 activity was assayed by measuring the amount of TNFα in supernatants by ELISA. TLR7 activity was assayed by measuring the amount of IFNα in supernatants by ELISA (R&D Systems). […] The results of this assay are shown below in Tables 2 and 3.
(§2) MC50 numbers are represented as factors of ten, for example, + indicates an MC50 value of ×10^4, or a value in the tens of thousands of nanomolar (nM range); ++ indicates an MC50 value of ×10^3, or a value in the thousands; +++ indicates an MC50 value of ×10^2, or a value in the hundreds; and ++++ indicates an MC50 value of ×10^1 or 10°, or a value in the tens or ones.

Another experiment has as its target T2, TLR7 (Homo sapiens, UniProt Q9NYK1).
T2 sequence (Q9NYK1 27-1049): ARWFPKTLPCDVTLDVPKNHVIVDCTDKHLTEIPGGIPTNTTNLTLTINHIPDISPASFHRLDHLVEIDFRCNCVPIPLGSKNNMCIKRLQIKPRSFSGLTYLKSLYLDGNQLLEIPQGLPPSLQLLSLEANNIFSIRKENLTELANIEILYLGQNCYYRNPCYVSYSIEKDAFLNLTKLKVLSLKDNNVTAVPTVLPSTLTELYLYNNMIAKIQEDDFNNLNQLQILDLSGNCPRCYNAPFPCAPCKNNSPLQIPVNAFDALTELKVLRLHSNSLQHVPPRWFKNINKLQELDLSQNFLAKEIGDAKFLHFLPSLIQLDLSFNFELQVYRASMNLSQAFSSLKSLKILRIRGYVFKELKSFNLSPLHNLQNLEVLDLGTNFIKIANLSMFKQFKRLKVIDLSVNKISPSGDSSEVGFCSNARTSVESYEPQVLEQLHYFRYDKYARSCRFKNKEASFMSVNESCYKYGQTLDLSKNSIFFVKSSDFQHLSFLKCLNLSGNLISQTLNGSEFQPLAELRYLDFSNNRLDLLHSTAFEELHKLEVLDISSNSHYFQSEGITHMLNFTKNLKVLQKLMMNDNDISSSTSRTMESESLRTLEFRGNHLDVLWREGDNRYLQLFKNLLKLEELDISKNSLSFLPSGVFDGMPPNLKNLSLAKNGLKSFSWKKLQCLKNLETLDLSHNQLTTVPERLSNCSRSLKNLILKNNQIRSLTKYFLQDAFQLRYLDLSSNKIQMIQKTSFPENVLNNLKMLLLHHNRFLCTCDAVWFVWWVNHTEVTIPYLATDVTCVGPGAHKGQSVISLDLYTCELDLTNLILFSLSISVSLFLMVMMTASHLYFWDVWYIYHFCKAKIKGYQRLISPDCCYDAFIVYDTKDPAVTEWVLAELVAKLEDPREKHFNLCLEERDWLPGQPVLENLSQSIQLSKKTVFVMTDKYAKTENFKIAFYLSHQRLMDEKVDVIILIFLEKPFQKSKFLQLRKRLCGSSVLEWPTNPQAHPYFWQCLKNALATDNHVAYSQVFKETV
The experiment is described as follows: PBMC assay for TLR7 (IFNα in supernatants by ELISA). Also noted: Peripheral blood mononuclear cells (PBMCs) from human blood were isolated; endogenous in cells; host or cells: human PBMCs. The class given is cell-based. To be noted: human PBMCs incubated with compound overnight, MC50 = concentration at which 50% of the maximum induction is seen. The protocol: as §1, §2
A general note: ELISA stands for enzyme-linked immunosorbent assay.

From patent publication US8524702B2, “Substituted benzoazepines as toll-like receptor modulators” (VentiRx Pharmaceuticals, Inc., priority 2009, dated 2013) come the findings set out here.

A word on the EC50: it is the concentration that produces a half-maximal response. As for `CCCN(C[C@H](C)O)C(=O)C1=Cc2ccc(-c3ccc(C(=O)N4CCCC4)cc3)cc2N=C(N)C1` (single isomer, unassigned) [Compound 105], the EC50 at TLR8 lay within 0.001 to 0.1 µM; at TLR7, 1 to 10 µM. The corresponding values for `CC(C)CN(CC(C)C)C(=O)C1=Cc2ccc(-c3ccc(C(=O)N4CCCC4)cc3)cc2N=C(N)C1` [Compound 103, (1E,4E)-2-amino-N,N-diisobutyl-8-(4-(pyrrolidine-1-carbonyl)phenyl)-3H-benzo[b]azepine-4-carboxamide] are 1 to 10 µM and 1 to 10 µM. The corresponding values for `CCCN(CC(C)O)C(=O)C1=Cc2ccc(-c3ccc(C(=O)N4CCCC4)cc3)cc2N=C(N)C1` (centres unmarked) [Compound 104, (1E,4E)-2-amino-N-(2-hydroxypropyl)-N-propyl-8-(4-(pyrrolidine-1-carbonyl)phenyl)-3H-benzo[b]azepine-4-carboxamide] are 0.001 to 0.1 µM and 1 to 10 µM. The corresponding values for `CCCN(CCCO)C(=O)C1=Cc2ccc(-c3ccc(C(=O)N4CCCC4)cc3)cc2N=C(N)C1` [Compound 109, (1E,4E)-2-amino-N-(3-hydroxypropyl)-N-propyl-8-(4-(pyrrolidine-1-carbonyl)phenyl)-3H-benzo[b]azepine-4-carboxamide] are 0.001 to 0.1 µM and 1 to 10 µM. On to `NC1=Nc2cc(-c3ccc(C(=O)N4CCCC4)cc3)ccc2C=C(C(=O)N2C[C@@H](O)[C@H](O)C2)C1` [Compound 112, (4-((1E,4E)-2-amino-4-((3R,4R)-3,4-dihydroxypyrrolidine-1-carbonyl)-3H-benzo[b]azepin-8-yl)phenyl)(pyrrolidin-1-yl)methanone], for which the results for the EC50 on TLR8 and at TLR7 were 1 to 10 µM and 10 to 100 µM, respectively. The corresponding values for `CCCN(CC(C)(C)O)C(=O)C1=Cc2ccc(-c3ccc(C(=O)N4CCCC4)cc3)cc2N=C(N)C1` [Compound 117, (1E,4E)-2-amino-N-(2-hydroxy-2-methylpropyl)-N-propyl-8-(4-(pyrrolidine-1-carbonyl)phenyl)-3H-benzo[b]azepine-4-carboxamide] are 0.1 to 1 µM and 10 to 100 µM.

As to `CCCN(CCOC)C(=O)C1=Cc2ccc(-c3ccc(C(=O)N4CCCC4)cc3)cc2N=C(N)C1` [Compound 119, (1E,4E)-2-amino-N-(2-methoxyethyl)-N-propyl-8-(4-(pyrrolidine-1-carbonyl)phenyl)-3H-benzo[b]azepine-4-carboxamide], the figures for the concentration giving a half-maximal response (EC50) on TLR8 and at TLR7 were 0.1 to 1 µM and 1 to 10 µM, respectively. For `CCCN(CCC)C(=O)C1=Cc2ccc(-c3ccc(C(=O)N(CC)CC)cc3)cc2N=C(N)C1` [Compound 125, (1E,4E)-2-amino-8-(4-(diethylcarbamoyl)phenyl)-N,N-dipropyl-3H-benzo[b]azepine-4-carboxamide] the same measures were 0.1 to 1 µM and 1 to 10 µM. For `CCCN(CCC)C(=O)C1=Cc2ccc(-c3ccc(C(=O)N4CCCCC4)cc3)cc2N=C(N)C1` [Compound 126, (1E,4E)-2-amino-8-(4-(piperidine-1-carbonyl)phenyl)-N,N-dipropyl-3H-benzo[b]azepine-4-carboxamide] the same measures were 0.1 to 1 µM and 1 to 10 µM. For `CCCN(CCC)C(=O)C1=Cc2ccc(-c3ccc(C(=O)N4CC[C@H](O)C4)cc3)cc2N=C(N)C1` [Compound 128, (1E,4E)-2-amino-8-(4-((S)-3-hydroxypyrrolidine-1-carbonyl)phenyl)-N,N-dipropyl-3H-benzo[b]azepine-4-carboxamide], the EC50 is 0.001 to 0.1 µM on TLR8 and 1 to 10 µM at TLR7. With `CCOC(=O)C1=Cc2ccc(-c3ccc(C(=O)N(CC)CC)cc3)cc2N=C(N)C1` [Compound 155, (1E,4E)-ethyl 2-amino-8-(4-(diethylcarbamoyl)phenyl)-3H-benzo[b]azepine-4-carboxylate], on TLR8, the EC50 lay in the range of 0.1 to 1 µM. Still for that read-out and setting: under `CCOC(=O)C1=Cc2ccc(-c3ccc(C(=O)N4CCCCC4)cc3)cc2N=C(N)C1` [Compound 156, (1E,4E)-ethyl 2-amino-8-(4-(piperidine-1-carbonyl)phenyl)-3H-benzo[b]azepine-4-carboxylate] stands 0.1 to 1 µM; under `CCCN(CCNS(C)(=O)=O)C(=O)C1=Cc2ccc(-c3ccc(C(=O)N4CCCC4)cc3)cc2N=C(N)C1` [Compound 176, (1E,4E)-2-amino-N-(2-(methylsulfonamido)ethyl)-N-propyl-8-(4-(pyrrolidine-1-carbonyl)phenyl)-3H-benzo[b]azepine-4-carboxamide], 1 to 10 µM; under `CCCN(CCC)C(=O)C1=Cc2ccc(-c3cccc(C(=O)O)c3)cc2N=C(N)C1` [Compound 186, 3-((1E,4E)-2-amino-4-(dipropylcarbamoyl)-3H-benzo[b]azepin-8-yl)benzoic acid], 10 to 100 µM. On the same count and under the same terms, with `CCCN(CCC)C(=O)C1=Cc2ccc(-c3cccc(C(=O)OCC)c3)cc2N=C(N)C1` [Compound 187, Ethyl 3-((1E,4E)-2-amino-4-(dipropylcarbamoyl)-3H-benzo[b]azepin-8-yl)benzoate] the figure was 0.1 to 1 µM; with `CCCN(CCC)C(=O)C1=Cc2ccc(-c3ccc(C(=O)O)cc3)cc2N=C(N)C1` [Compound 188, 4-((1E,4E)-2-amino-4-(dipropylcarbamoyl)-3H-benzo[b]azepin-8-yl)benzoic acid], 1 to 10 µM. On to `CCCN(CCCF)C(=O)C1=Cc2ccc(-c3ccc(C(=O)N4CCCC4)cc3)cc2N=C(N)C1` [Compound 202, (1E,4E)-2-Amino-N-(3-fluoropropyl)-N-propyl-8-(4-(pyrrolidine-1-carbonyl)phenyl)-3H-benzo[b]azepine-4-carboxamide], for which the EC50 at TLR8 was in the range of 0.1 to 1 µM.

Turning to `CCCN(CCCF)C(=O)C1=Cc2ccc(-c3ccc(C(=O)OCC)cc3)cc2N=C(N)C1` [Compound 208, Ethyl 4-((1E,4E)-2-amino-4-((3-fluoropropyl)(propyl)carbamoyl)-3H-benzo[b]azepin-8-yl)benzoate], at TLR8, the EC50 fell in the range of 1 to 10 µM. The same measure, in the same setting: under `CCCN(CCCO)C(=O)C1=Cc2ccc(-c3ccc(C(=O)O)cc3)cc2N=C(N)C1` [Compound 209, 4-((1E,4E)-2-Amino-4-((3-hydroxypropyl)(propyl)carbamoyl)-3H-benzo[b]azepin-8-yl)benzoic acid] stands 10 to 100 µM.
